Marks after values point to notes of the source that are not given here.
How the values were obtained:
Assay type in all cases: in vivo, broiler chickens (Ross 308)
[1] = test system: male broilers subjected to chronic cyclic heat stress; experiment: Parameters in liver of birds sampled at d-23, d-25 and d-39
Method: (§1) Sampling of one bird per pen (with weight close to average weight of the pen) on d-23, d-25 and on d-39 (on d-25 and d-39, sampling starts after >3 h of heat stress that day; 108 birds in total) • malondialdehyde, HSP70 (Chicken Heat Shock Protein 70, Hsp-70 ELISA Kit) Cusabio Code CSB-E11196Ch), HSP90 (Chicken Heat Shock Protein 90, HSP-90 ELISA Kit; Cusabio Code CSB-E12873C), GPx, SOD in plasma; GSH/GSSG in erythrocytes; and T3, T4 and nitric oxide in serum • Breast muscle and liver: malondialdehyde, AOX (GPx, SOD), GSH/GSSG
(§2) For physiological measurements, time of sampling (representing the number of minutes between the beginning of heat stress and the precise moment of sampling of the bird that day), if appropriate, was included in the model as a covariable if significant as well. Orthogonal contrasts were applied to test for linear and quadratic effects upon incremental levels of DMS supplementation in the diet. Means are given as estimated marginal means (least square means). Means were separated using the Tukey post-hoc test. Differences were considered significant when p<0.05 and as a trend for significance when p<0.1.

[2] = test system: male broilers subjected to chronic cyclic heat stress; experiment: Parameters in breast muscle of birds sampled at d-23, d-25 and d-39
Method: as §1, §2

[3] = test system: male broilers subjected to chronic cyclic heat stress; experiment: Carcass yield and portions on d-40; conditions: d-40 after overnight fasting
Excerpt: Sampling of two birds per pen (with weight close to average weight of the pen) on d-40 after overnight fasting (no heat stress that day) • Carcass yield, breast percentage, thigh percentage, drumstick percentage and abdominal fat • Carcass yield: with skin, bled, without internal organs, without feet, without head, without neck, without abdominal fat; relative to bird body weight • Breast percentage: skinless, boneless; relative to bird body weight • Thigh percentage: with skin, with bone; relative to bird body weight • Drumstick percentage: with skin, with bone; relative to bird body weight • Abdominal fat percentage: abdominal fat; relative to bird body weight • Breast meat quality • Scoring of breast myopathies (wooden breast and white striping) • Wooden breast: normal, 0; mild, 1 and severe, 2 • White striations: normal, 0; mild, 1, and severe, 2 • pH and colour, both at time 0 h and 24 h (after sampling at time 0 h, breasts are stored at 4° C. until 24 h) • Drip loss, determined for periods 0-24 h and for period 0-72 h (after sampling at time 0 h, breasts are stored at 4° C. until 72 h, and weight without exuded water at 24 h and 72 h) • Press loss, determined at 24 h (after sampling at time 0 h, breasts are stored at 4° C. until 24 h, prior to determine press loss) • Oxidative stability (TBARS after simulated retail display)

[4] = test system: male broilers subjected to chronic cyclic heat stress; experiment: Rectal temperature and panting frequency during heat stress
Method: The finisher period started at d-21, and the chronic cyclic heat stress (HS) protocol was applied from d-24 until d-39. Starting from d-24, the temperature was increased from 22° C. to 34° C. for 6 hours per day (from 9:00 to 15:00) with relative air humidity (RH) between 52 and 58%. From 8:00 to 9:00, the temperature was increased from 22° C. to 34° C., and from 15:00 to 16:00, the temperature was decreased from 34° C. to 22° C. The rest of the day the temperature was 22° C. The room was equipped with heaters with thermostats, and air circulators to enable the desired temperature and RH to be maintained, providing sufficient ventilation and air conditions. RH was adjusted with manual spraying of water on stable walls, periodically. The temperature and the RH were recorded at 10-min intervals with a dry bulb thermo-hygrometer (Escort RH iLog, Escort Verification Technologies Inc., Buchanan, United States).
Rectal temperature and panting frequency (video analyses) (for 2 selected birds per pen on 3 days: d-24, d-31 and d-38, measured after 4 h of heat stress that day)

[5] = 0.1% DMS in diet (T2), Total, all days
[6] = 0.1% DMS in diet (T2), d-24, during heat stress
[7] = 0.1% DMS in diet (T2), d-31, during heat stress
[8] = 0.1% DMS in diet (T2), d-38, during heat stress
[9] = 0.2% DMS in diet (T3), Total, all days
[10] = 0.2% DMS in diet (T3), d-24, during heat stress
[11] = 0.2% DMS in diet (T3), d-31, during heat stress
[12] = 0.2% DMS in diet (T3), d-38, during heat stress

CS(C)(=O)=O [DMS, dimethyl sulfone]
GSSG/GSH ([1]; 0.1% DMS in diet (T2), d-23): 0.016
Glutathione (GSH) ([1]; 0.1% DMS in diet (T2), d-23): 4.69 µmol/g
Glutathione peroxidase ([1]; 0.1% DMS in diet (T2), d-23): 17.0 U/g
Malondialdehyde ([1]; 0.1% DMS in diet (T2), d-23): 43.9 nmol/g
Oxidized glutathione (GSSG) ([1]; 0.1% DMS in diet (T2), d-23): 0.077 µmol/g
Super oxide dismutase ([1]; 0.1% DMS in diet (T2), d-23): 332 U/g
GSSG/GSH ([1]; 0.1% DMS in diet (T2), d-25): 0.017
Glutathione (GSH) ([1]; 0.1% DMS in diet (T2), d-25): 4.26 µmol/g
Glutathione peroxidase ([1]; 0.1% DMS in diet (T2), d-25): 17.8 U/g
Malondialdehyde ([1]; 0.1% DMS in diet (T2), d-25): 48.6 nmol/g
Oxidized glutathione (GSSG) ([1]; 0.1% DMS in diet (T2), d-25): 0.070 µmol/g
Super oxide dismutase ([1]; 0.1% DMS in diet (T2), d-25): 292 U/g
GSSG/GSH ([1]; 0.1% DMS in diet (T2), d-39): 0.027
Glutathione (GSH) ([1]; 0.1% DMS in diet (T2), d-39): 3.74 µmol/g
Glutathione peroxidase ([1]; 0.1% DMS in diet (T2), d-39): 17.5 U/g
Malondialdehyde ([1]; 0.1% DMS in diet (T2), d-39): 46.4 nmol/g
Oxidized glutathione (GSSG) ([1]; 0.1% DMS in diet (T2), d-39): 0.093 µmol/g
Super oxide dismutase ([1]; 0.1% DMS in diet (T2), d-39): 356 U/g
GSSG/GSH ([1]; 0.2% DMS in diet (T3), d-23): 0.015
Glutathione (GSH) ([1]; 0.2% DMS in diet (T3), d-23): 5.04 µmol/g
Glutathione peroxidase ([1]; 0.2% DMS in diet (T3), d-23): 16.9 U/g
Malondialdehyde ([1]; 0.2% DMS in diet (T3), d-23): 44.6 nmol/g
Oxidized glutathione (GSSG) ([1]; 0.2% DMS in diet (T3), d-23): 0.076 µmol/g
Super oxide dismutase ([1]; 0.2% DMS in diet (T3), d-23): 317 U/g
GSSG/GSH ([1]; 0.2% DMS in diet (T3), d-25): 0.017
Glutathione (GSH) ([1]; 0.2% DMS in diet (T3), d-25): 4.14 µmol/g
Glutathione peroxidase ([1]; 0.2% DMS in diet (T3), d-25): 17.9 U/g
Malondialdehyde ([1]; 0.2% DMS in diet (T3), d-25): 49.1 nmol/g
Oxidized glutathione (GSSG) ([1]; 0.2% DMS in diet (T3), d-25): 0.069 µmol/g
Super oxide dismutase ([1]; 0.2% DMS in diet (T3), d-25): 289 U/g
GSSG/GSH ([1]; 0.2% DMS in diet (T3), d-39): 0.025
Glutathione (GSH) ([1]; 0.2% DMS in diet (T3), d-39): 3.94 µmol/g
Glutathione peroxidase ([1]; 0.2% DMS in diet (T3), d-39): 18.6 U/g
Malondialdehyde ([1]; 0.2% DMS in diet (T3), d-39): 48 nmol/g
Oxidized glutathione (GSSG) ([1]; 0.2% DMS in diet (T3), d-39): 0.097 µmol/g
Super oxide dismutase ([1]; 0.2% DMS in diet (T3), d-39): 346 U/g
Glutathione (GSH) ([2]; 0.1% DMS in diet (T2), d-23): 1.00 µmol/g
Glutathione peroxidase ([2]; 0.1% DMS in diet (T2), d-23): 0.39 U/g
Malondialdehyde ([2]; 0.1% DMS in diet (T2), d-23): 4.72 nmol/g
Super oxide dismutase ([2]; 0.1% DMS in diet (T2), d-23): 29.7 U/g
Glutathione (GSH) ([2]; 0.1% DMS in diet (T2), d-25): 1.30^ab μmol/g
Glutathione peroxidase ([2]; 0.1% DMS in diet (T2), d-25): 0.42 U/g
Malondialdehyde ([2]; 0.1% DMS in diet (T2), d-25): 4.6 nmol/g
Super oxide dismutase ([2]; 0.1% DMS in diet (T2), d-25): 27.3 U/g
Glutathione (GSH) ([2]; 0.1% DMS in diet (T2), d-39): 1.46 µmol/g
Glutathione peroxidase ([2]; 0.1% DMS in diet (T2), d-39): 0.46 U/g
Malondialdehyde ([2]; 0.1% DMS in diet (T2), d-39): 5.23 nmol/g
Super oxide dismutase ([2]; 0.1% DMS in diet (T2), d-39): 27.4 U/g
Glutathione (GSH) ([2]; 0.2% DMS in diet (T3), d-23): 1.10 µmol/g
Glutathione peroxidase ([2]; 0.2% DMS in diet (T3), d-23): 0.38 U/g
Malondialdehyde ([2]; 0.2% DMS in diet (T3), d-23): 4.5 nmol/g
Super oxide dismutase ([2]; 0.2% DMS in diet (T3), d-23): 32.6 U/g
Glutathione (GSH) ([2]; 0.2% DMS in diet (T3), d-25): 1.39^a μmol/g
Glutathione peroxidase ([2]; 0.2% DMS in diet (T3), d-25): 0.44 U/g
Malondialdehyde ([2]; 0.2% DMS in diet (T3), d-25): 4.5 nmol/g
Super oxide dismutase ([2]; 0.2% DMS in diet (T3), d-25): 28.1 U/g
Glutathione (GSH) ([2]; 0.2% DMS in diet (T3), d-39): 1.56 µmol/g
Glutathione peroxidase ([2]; 0.2% DMS in diet (T3), d-39): 0.50 U/g
Malondialdehyde ([2]; 0.2% DMS in diet (T3), d-39): 5.57 nmol/g
Super oxide dismutase ([2]; 0.2% DMS in diet (T3), d-39): 26.2 U/g
Body weight ([3]; 0.1% DMS in diet (T2)): 3010 g
Body weight ([3]; 0.2% DMS in diet (T3)): 2980 g
Panting [4, 5]: 141 #/min
Rectal temperature [4, 5]: 42.6^ab ° C.
Panting [4, 6]: 119^ab #/min
Rectal temperature [4, 6]: 42.3 °C
Panting [4, 7]: 158 #/min
Rectal temperature [4, 7]: 42.9 °C
Panting [4, 8]: 147 #/min
Rectal temperature [4, 8]: 42.7 °C
Panting [4, 9]: 137 #/min
Rectal temperature [4, 9]: 42.5^b ° C.
Panting [4, 10]: 112^b #/min
Rectal temperature [4, 10]: 42.3 °C
Panting [4, 11]: 143 #/min
Rectal temperature [4, 11]: 42.6 °C
Panting [4, 12]: 152 #/min
Rectal temperature [4, 12]: 42.6 °C

— US20230225990A1, “DIMETHYL SULFONE FOR TREATMENT OF CHRONICALLY HEAT STRESSED POULTRY” (Evonik Operations GmbH, priority 2020, published 2023)
